Laboratory results reported in PubChem BioAssay AID1259407 (Chemical Carcinogenesis Research Information System (CCRIS), 2018).
Activity calls are given as the source filed them. No rule for the calls is given here.

Test system: CCRIS mutagenicity, Ames/micronucleus/aberration tests
Assay: CCRIS mutagenicity studies

c1ccccc1
mutagenic call (End Point: IN VITRO CHROMOSOMAL ABERRATIONS, Test System: BOVINE PERIPHERAL LYMPHOCYTES, Metabolic Activation: NONE): active; positive (structural changes) | mutagenic call (End Point: IN VITRO CHROMOSOMAL ABERRATIONS, Test System: BOVINE PERIPHERAL LYMPHOCYTES, Metabolic Activation: NONE, Method: FISH): active; positive (structural changes) | mutagenic call (End Point: IN VITRO CHROMOSOMAL ABERRATIONS, Test System: BOVINE PERIPHERAL LYMPHOCYTES, Metabolic Activation: RAT, S-9, AROCLOR 1254): active; positive (structural changes) | mutagenic call (End Point: IN VITRO CHROMOSOMAL ABERRATIONS, Test System: CHO CELLS, Metabolic Activation: NONE): inactive; negative | mutagenic call (End Point: IN VITRO CHROMOSOMAL ABERRATIONS, Test System: CHO CELLS, Metabolic Activation: RAT, LIVER, S-9, AROCLOR 1254): inactive; negative | mutagenic call (End Point: IN VITRO MICRONUCLEUS, Test System: AHH-1 CELLS, Metabolic Activation: NONE): inactive; negative | mutagenic call (End Point: IN VITRO MICRONUCLEUS, Test System: BOVINE LYMPHOCYTES, Metabolic Activation: NONE): active; positive | mutagenic call (End Point: IN VITRO MICRONUCLEUS, Test System: BOVINE LYMPHOCYTES, Metabolic Activation: S-9 MIX, AROCLOR 1254): active; positive | mutagenic call (End Point: IN VITRO MICRONUCLEUS, Test System: CHL/IU CELLS, Metabolic Activation: RAT, LIVER, S-9, PHENOBARBITAL AND 5,6-BENZOFLAVONE): active; positive | mutagenic call (End Point: IN VITRO MICRONUCLEUS, Test System: MCL-5 CELLS, Metabolic Activation: NONE): active; positive | mutagenic call (End Point: IN VITRO MICRONUCLEUS, Test System: V79 CELLS, Metabolic Activation: RAT, LIVER, S-9, AROCLOR 1254): inactive; negative | mutagenic call (End Point: IN VIVO CHROMOSOMAL ABERRATIONS, Test System: DUAL COLOR PAINTING OF CHROMOSOMES 8 AND 21 FROM PERIPHERAL LYMPHOCYTES, METAPHASE SPREADS, Species: HUMAN, Strain/Sex: MALE, FEMALE, Route: INHALATION (WORKPLACE), Method: FISH): active; positive | mutagenic call (End Point: IN VIVO CHROMOSOMAL ABERRATIONS, Test System: HUMAN PERIPHERAL LYMPHOCYTES, Species: HUMAN, Route: INHALATION (WORKPLACE), Method: FISH): breaks in chromosomes 1 and 9 | mutagenic call (End Point: IN VIVO CHROMOSOMAL ABERRATIONS, Test System: LYMPHOCYTES, Species: HUMAN, Route: PROBABLY INHALATION, Method: FISH (INTERPHASE OR METAPHASE; CHROMOSOMES 7, 8, 9)): active; positive (structural and ploidy changes) | mutagenic call (End Point: IN VIVO CHROMOSOMAL ABERRATIONS, Test System: PERIPHERAL BLOOD LYMPHOCYTES, Species: HUMAN (COKE OVEN WORKERS), Route: INHALATION, Method: FISH): active; positive (monosomy and trisomy of chromosomes 8 and 21) | mutagenic call (End Point: IN VIVO CHROMOSOMAL ABERRATIONS, Test System: PERIPHERAL BLOOD LYMPHOCYTES, Species: HUMAN (PETROLEUM REFINERY WORKERS), Strain/Sex: MALE, Route: INDUSTRIAL EXPOSURE): active; positive | mutagenic call (End Point: IN VIVO CHROMOSOMAL ABERRATIONS, Test System: PERIPHERAL HUMAN LYMPHOCYTES, Species: HUMAN, Route: INDUSTRIAL EXPOSURE (INHALATION)): active; positive (ploidy) | mutagenic call (End Point: IN VIVO MICRONUCLEUS, Test System: BONE MARROW POLYCHROMATIC ERYTHROCYTES, Species: MOUSE, Strain/Sex: CD-1/MALE, Route: ORAL (GAVAGE)): active; positive | mutagenic call (End Point: IN VIVO MICRONUCLEUS, Test System: BONE MARROW, Species: MOUSE, Strain/Sex: B6C3F1/MALE, Route: GAVAGE): active; positive | mutagenic call (End Point: IN VIVO MICRONUCLEUS, Test System: SPLENOCYTES, Species: MOUSE, Strain/Sex: CD-1/MALE, Route: ORAL (GAVAGE)): active; positive | mutagenic call (End Point: In vivo micronucleus, Test System: Bone marrow polychromatic erythrocytes, Species: Mouse, Strain/Sex: CD-1/Male, Route: Inhalation): active; positive | mutagenic call (End Point: In vivo micronucleus, Test System: Peripheral blood normochromatic erythrocytes, Species: Mouse, Strain/Sex: B6.129-Cdkn2atm1Rdp (i.e. Haploinsufficient p16Ink4a/p19Arf)/Female, Route: Gavage): active; positive (deletions in the cdkn2a gene predispose rodents to cancer at multiple | mutagenic call (End Point: In vivo micronucleus, Test System: Peripheral blood normochromatic erythrocytes, Species: Mouse, Strain/Sex: B6.129-Cdkn2atm1Rdp (i.e. Haploinsufficient p16Ink4a/p19Arf)/Male, Route: Gavage): active; positive (deletions in the cdkn2a gene predispose rodents to cancer at multiple | mutagenic call (Test System: AMES SALMONELLA TYPHIMURIUM, Strain/Indicator: TA97, Metabolic Activation: HAMSTER LIVER S-9, AROCLOR 1254 (10 OR 30%), Method: PREINCUBATION): inactive; negative | mutagenic call (Test System: AMES SALMONELLA TYPHIMURIUM, Strain/Indicator: TA97, Metabolic Activation: NONE, Method: PREINCUBATION): inactive; negative | mutagenic call (Test System: AMES SALMONELLA TYPHIMURIUM, Strain/Indicator: TA97, Metabolic Activation: NONE, Method: STANDARD PLATE): inactive; negative | mutagenic call (Test System: AMES SALMONELLA TYPHIMURIUM, Strain/Indicator: TA97, Metabolic Activation: RAT LIVER S-9, AROCLOR 1254 (10 OR 30%), Method: PREINCUBATION): inactive; negative | mutagenic call (Test System: AMES SALMONELLA TYPHIMURIUM, Strain/Indicator: TA97, Metabolic Activation: RAT, LIVER, S-9, AROCLOR 1254, Method: STANDARD PLATE): inactive; negative | mutagenic call (Test System: AMES SALMONELLA TYPHIMURIUM, Strain/Indicator: TA97, Metabolic Activation: S-9, Method: STANDARD PLATE): inactive; negative | mutagenic call (Test System: AMES SALMONELLA TYPHIMURIUM, Strain/Indicator: TA98, Metabolic Activation: HAMSTER LIVER S-9, AROCLOR 1254 (10 OR 30%), Method: PREINCUBATION): inactive; negative | mutagenic call (Test System: AMES SALMONELLA TYPHIMURIUM, Strain/Indicator: TA98, Metabolic Activation: NONE, Method: PREINCUBATION): inactive; negative | mutagenic call (Test System: AMES SALMONELLA TYPHIMURIUM, Strain/Indicator: TA98, Metabolic Activation: RAT LIVER S-9, AROCLOR 1254 (10 OR 30%), Method: PREINCUBATION): inactive; negative | mutagenic call (Test System: AMES SALMONELLA TYPHIMURIUM, Strain/Indicator: TA98, Metabolic Activation: RAT, LIVER, S-9, AROCLOR 1254, Method: DESICCATOR): inactive; negative | mutagenic call (Test System: AMES SALMONELLA TYPHIMURIUM, Strain/Indicator: TA98, Metabolic Activation: RAT, LIVER, S-9, AROCLOR 1254, Method: STANDARD PLATE): inactive; negative | mutagenic call (Test System: AMES SALMONELLA TYPHIMURIUM, Strain/Indicator: TA98, Metabolic Activation: RAT, LIVER, S-9, AROCLOR, Method: STANDARD PLATE): inactive; negative | mutagenic call (Test System: AMES SALMONELLA TYPHIMURIUM, Strain/Indicator: TA98, Metabolic Activation: RAT, LIVER, S-9, ETHANOL, Method: STANDARD PLATE): inactive; negative | mutagenic call (Test System: AMES SALMONELLA TYPHIMURIUM, Strain/Indicator: TA98, Metabolic Activation: RAT, LIVER, S-9, PHENOBARBITAL, Method: STANDARD PLATE): inactive; negative | mutagenic call (Test System: AMES SALMONELLA TYPHIMURIUM, Strain/Indicator: TA98, Metabolic Activation: RAT, LIVER, S-9, PYRAZOLE, Method: STANDARD PLATE): inactive; negative | mutagenic call (Test System: AMES SALMONELLA TYPHIMURIUM, Strain/Indicator: TA98, Metabolic Activation: S-9, Method: STANDARD PLATE): inactive; negative | mutagenic call (Test System: AMES SALMONELLA TYPHIMURIUM, Strain/Indicator: TA100, Metabolic Activation: HAMSTER LIVER S-9, AROCLOR 1254 (10 OR 30%), Method: PREINCUBATION): inactive; negative | mutagenic call (Test System: AMES SALMONELLA TYPHIMURIUM, Strain/Indicator: TA100, Metabolic Activation: NONE, Method: DESICCATOR): inactive; negative | mutagenic call (Test System: AMES SALMONELLA TYPHIMURIUM, Strain/Indicator: TA100, Metabolic Activation: NONE, Method: PREINCUBATION): inactive; negative | mutagenic call (Test System: AMES SALMONELLA TYPHIMURIUM, Strain/Indicator: TA100, Metabolic Activation: RAT LIVER S-9, AROCLOR 1254 (10 OR 30%), Method: PREINCUBATION): inactive; negative | mutagenic call (Test System: AMES SALMONELLA TYPHIMURIUM, Strain/Indicator: TA100, Metabolic Activation: RAT, LIVER, S-9, AROCLOR 1254, Method: DESICCATOR): inactive; negative | mutagenic call (Test System: AMES SALMONELLA TYPHIMURIUM, Strain/Indicator: TA100, Metabolic Activation: RAT, LIVER, S-9, AROCLOR 1254, Method: STANDARD PLATE): inactive; negative | mutagenic call (Test System: AMES SALMONELLA TYPHIMURIUM, Strain/Indicator: TA100, Metabolic Activation: RAT, LIVER, S-9, AROCLOR, Method: STANDARD PLATE): inactive; negative | mutagenic call (Test System: AMES SALMONELLA TYPHIMURIUM, Strain/Indicator: TA100, Metabolic Activation: RAT, LIVER, S-9, ETHANOL, Method: STANDARD PLATE): inactive; negative
